{
  "source": "patent US5436273A",
  "about": "“Psychoactive propargylamine derivatives used in the treatment of anxiety, psychotic states or aggression” (Lowchol Scientific, Inc., priority 1993, dated 1995)",
  "key": {"[1]": {"test_system": "conditioned avoidance response in rats", "test": "Inhibition of conditioned avoidance response in rats", "format": "in vivo, Sprague Dawley rats", "source_text": "6. Inhibition of Conditioned Avoidance Response in Rats\nMale Sprague Dawley rats (200-250 g) are trained to avoid an electric foot shock, by continuously changing room with the appropriate visuals and auditory signals, in an automatic 2-way conditioned avoidance apparatus (Coulbourn Instrument Co.). Only the animals that perform at least a 70% avoidance (3 successive training sessions) are kept for the experiment.\nThe day of the experiment, the selected animals are submitted to a pre-treatment control session. The compound to be studied is then administered i.p. and the animals are placed back in the apparatus for evaluation 30 minutes later. Diazepam was used as a standard."}, "[2]": {"test_system": "motor coordination (rotarod) in mice", "conditions": "mouse, in vivo"}, "[3]": {"test_system": "spontaneous motor activity in rats", "test": "Inhibition of spontaneous motor activity in rats", "format": "in vivo, Sprague Dawley rats", "conditions": "for ED50: Rattus norvegicus, ip, 0.5 h, i.p., 30 minutes", "procedure": "Two animals are studied simultaneously, one treated and one control. After a 2 hour period of acclimatization to the room, a first activity count of 10 minutes duration is perfomed. The compound to be studied is then administered i.p. and the spontaneous activity is reevaluated 30 minutes later over a period of 10 minutes.\n5. Inhibition of Spontaneous Motor Activity in Rats\nThe method is the same as described above for mice, except that because of the size of the animals (Sprague Dawley rats; 300 g), the test and control animals are not evaluated simultaneously, but alternatively."}, "[4]": {"test_system": "aggressive behavior of combative mice", "test": "Duration of antiaggressive effect", "format": "in vivo", "conditions": "single dose 10 mg/kg i.p., FIG. 2", "source_text": "11. Duration of Antiaggressive Effect"}},
  "note": "Entries after “also recorded” stand apart in the source; their conditions may differ. Read-outs that look alike come from different tables or passages of the source.",
  "data": [
    {"compound": "C#CC(C)N", "note": "(stereo not drawn) [Compound 3, 2-Amino-3-butyne]", "values": [
      {"measurement": "conditioned avoidance response, first exposure", "setting": "[1]; 10 mg/kg i.p., first exposure", "value": 3, "unit": "%"},
      {"measurement": "conditioned avoidance response, re-exposed", "setting": "[1]; 10 mg/kg i.p., re-exposed", "value": 29, "unit": "%"},
      {"measurement": "ED50", "setting": "[1]; Rattus norvegicus, ip, 0.5 h, calculated with repeated exposure, r^2 = 0.43", "value": "21.5 ± 11.2", "unit": "mg/kg"},
      {"measurement": "inhibition of conditioned avoidance response (in words)", "setting": "[1]; rats", "value": "very active at first; also recorded: much less active if re-; also recorded: inhibit conditioned avoidance in rats, but are less active than diazepam; also recorded: loss of activity in the case of compound N^o 3 after the first exposure to the drug; also recorded: does not seem to impair the animal's sensory discrimination at doses 2 to 3 times above that which produces a quieting effect with repeated exposure"},
      {"measurement": "neurotoxicity / motor activity (in words)", "setting": "[2]", "value": "much less neurotoxic than buspirone (rot TD50 =135 mg/kg p.o.) and diazepam"},
      {"measurement": "inhibition of spontaneous motor activity (in words)", "setting": "[3]", "value": "of comparable activity in rats"},
      {"measurement": "ED50", "setting": "[3]; read-out: ED50, clockwise revolutions", "value": "4.1 ± 1.4", "unit": "mg/kg"},
      {"measurement": "ED50", "setting": "[3]; read-out: ED50, counterclockwise revolutions", "value": "3.7 ± 1.7", "unit": "mg/kg"},
      {"measurement": "ED50", "setting": "[3]; read-out: ED50, horizontal activity", "value": "4.2 ± 1.8", "unit": "mg/kg"},
      {"measurement": "ED50", "setting": "[3]; read-out: ED50, movement time", "value": "5.5 ± 2.3", "unit": "mg/kg"},
      {"measurement": "ED50", "setting": "[3]; read-out: ED50, number of movements", "value": "11.8 ± 7.9", "unit": "mg/kg"},
      {"measurement": "ED50", "setting": "[3]; read-out: ED50, number of stereotypic movements", "value": "5.2 ± 2.4", "unit": "mg/kg"},
      {"measurement": "ED50", "setting": "[3]; read-out: ED50, stereotypy time", "value": "4.2 ± 1.7", "unit": "mg/kg"},
      {"measurement": "ED50", "setting": "[3]; read-out: ED50, total distance", "value": "4.9 ± 2", "unit": "mg/kg"},
      {"measurement": "duration of inhibitory effect on aggressive behavior", "setting": "[4]", "value": "approximately 4 hours"}
    ]}
  ]
}
